# Data reported in the Kinase Knowledgebase extract (Sharma et al. 2016).
# Target: EGFR (human) (UniProt P00533)
# Details: a431
# Chain of EGFR (human) (P00533 whole entry, looked up): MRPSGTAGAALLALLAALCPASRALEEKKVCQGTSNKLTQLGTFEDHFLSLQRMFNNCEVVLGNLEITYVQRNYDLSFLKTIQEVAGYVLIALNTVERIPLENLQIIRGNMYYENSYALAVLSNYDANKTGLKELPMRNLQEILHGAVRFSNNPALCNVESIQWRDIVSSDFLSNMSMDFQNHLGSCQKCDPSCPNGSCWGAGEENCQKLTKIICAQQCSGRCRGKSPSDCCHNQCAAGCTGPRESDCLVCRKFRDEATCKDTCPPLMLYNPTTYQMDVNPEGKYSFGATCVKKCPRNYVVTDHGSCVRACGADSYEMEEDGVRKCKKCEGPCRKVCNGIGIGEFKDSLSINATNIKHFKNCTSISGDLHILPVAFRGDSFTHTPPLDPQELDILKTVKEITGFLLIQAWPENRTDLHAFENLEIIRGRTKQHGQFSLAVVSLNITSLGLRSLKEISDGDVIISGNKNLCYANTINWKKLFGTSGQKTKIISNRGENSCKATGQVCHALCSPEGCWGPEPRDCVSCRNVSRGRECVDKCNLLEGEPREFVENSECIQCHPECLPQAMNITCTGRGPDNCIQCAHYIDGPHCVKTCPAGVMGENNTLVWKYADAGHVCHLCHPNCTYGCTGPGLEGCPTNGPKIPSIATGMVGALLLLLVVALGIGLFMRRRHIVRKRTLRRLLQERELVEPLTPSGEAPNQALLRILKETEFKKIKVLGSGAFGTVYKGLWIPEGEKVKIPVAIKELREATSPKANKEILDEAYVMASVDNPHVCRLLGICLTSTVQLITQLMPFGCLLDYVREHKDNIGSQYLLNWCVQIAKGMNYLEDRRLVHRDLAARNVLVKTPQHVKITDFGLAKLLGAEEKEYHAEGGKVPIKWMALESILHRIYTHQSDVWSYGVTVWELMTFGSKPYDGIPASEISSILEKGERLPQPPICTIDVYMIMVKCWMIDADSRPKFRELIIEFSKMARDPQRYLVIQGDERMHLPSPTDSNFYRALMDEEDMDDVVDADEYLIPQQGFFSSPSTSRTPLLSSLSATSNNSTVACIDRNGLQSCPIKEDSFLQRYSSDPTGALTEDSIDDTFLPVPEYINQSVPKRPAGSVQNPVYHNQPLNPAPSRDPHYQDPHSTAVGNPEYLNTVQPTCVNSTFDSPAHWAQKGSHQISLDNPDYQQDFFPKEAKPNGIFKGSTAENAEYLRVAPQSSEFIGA
row,Compound,IC50 [µM]
1,Cc1ccccc1Cn1ccc2c(Nc3cccc(Br)c3)nc(N)nc21,15.7
2,Nc1nc(Nc2cccc(Br)c2)c2ccn(Cc3ccccc3)c2n1,50.4
3,COc1ccc(OC)c(Cn2ccc3c(Nc4cccc(Br)c4)nc(N)nc32)c1,40.6
4,Nc1nc(Nc2cccc(Br)c2)c2ccn(Cc3ccc(Cl)c(Cl)c3)c2n1,19.2
5,COc1cc(Cn2ccc3c(Nc4cccc(Br)c4)nc(N)nc32)cc(OC)c1OC,39
6,Nc1nc(Nc2cccc(Br)c2)c2ccn(Cc3ccc4ccccc4c3)c2n1,20.4
7,Nc1nc(Nc2cccc(Br)c2)c2ccn(Cc3ccc(Cl)cc3)c2n1,16.1
8,Nc1nc(Nc2cccc(Br)c2)c2ccn(Cc3cccc4ccccc34)c2n1,36.3
9,Nc1nc(Nc2cccc(Br)c2)c2ccn(Cc3ccc(-c4ccccc4)cc3)c2n1,13.3
10,Nc1nc(Nc2cccc(Br)c2)c2ccn(Cc3ccc(Cl)cc3Cl)c2n1,15.3
11,Nc1nc(Nc2cccc(Br)c2)c2ccn(Cc3ccccc3Cl)c2n1,88.4
